# Measurements taken from patent US9714249B2 (Novartis AG, priority 2013, dated 2017).
# Experiments:
# THP-1 cells = assay: Cell growth inhibition assay (CellTiter-Glo), THP-1; format: cell-based, human; conditions: THP-1, 4 days; for GI50: Homo sapiens, 96 h, half-maximal growth inhibition; for THP-1 TGI: total growth inhibition
# In short: (§1)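 Growth of each leukemia line in its own serum-containing medium was measured by CellTiter-Glo ATP luminescence after 4 days at 37 °C with 3-fold serial dilutions starting at 10 μM (0.1% DMSO). Readings were corrected for background and day 0, scaled so that vehicle is 100% and medium-only is −100%, and 4-parameter fits gave IC50 and TGI.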
# BRD3 (His-Brd3(20-477)) = BRD3 (His-Brd3(20-477)) (Homo sapiens (Human), UniProt Q15059); assay: TR-FRET in-vitro binding assay for BRD3; conditions: acetyl-histone H4 peptide
# K-562 cells = assay: Cell growth inhibition assay (CellTiter-Glo), K-562; format: cell-based, human; conditions: K-562, 4 days; for GI50: Homo sapiens, K562, 96 h, half-maximal growth inhibition; for K-562 TGI: total growth inhibition
# In short: as §1
# MV-4-11 cells = assay: Cell growth inhibition assay (CellTiter-Glo), MV-4-11; format: cell-based, human; conditions: MV-4-11, 4 days; for GI50: Homo sapiens, MV4-11, 96 h, half-maximal growth inhibition; for MV-4-11 TGI: total growth inhibition
# In short: as §1
# Chain of BRD3 (His-Brd3(20-477)) (Q15059 20-477, species assumed): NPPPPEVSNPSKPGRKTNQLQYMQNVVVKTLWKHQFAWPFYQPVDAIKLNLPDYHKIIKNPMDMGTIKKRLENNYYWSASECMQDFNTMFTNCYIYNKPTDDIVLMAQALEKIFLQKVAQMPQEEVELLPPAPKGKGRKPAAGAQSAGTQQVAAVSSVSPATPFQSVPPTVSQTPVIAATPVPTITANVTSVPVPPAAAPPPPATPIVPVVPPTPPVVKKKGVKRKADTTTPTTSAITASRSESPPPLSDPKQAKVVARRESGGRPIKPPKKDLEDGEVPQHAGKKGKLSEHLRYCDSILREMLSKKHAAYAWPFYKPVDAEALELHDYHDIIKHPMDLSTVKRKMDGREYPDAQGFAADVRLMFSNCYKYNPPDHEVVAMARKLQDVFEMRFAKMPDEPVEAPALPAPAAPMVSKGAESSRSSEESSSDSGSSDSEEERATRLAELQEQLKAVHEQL
SMILES,GI50 (THP-1 cells) [nM],IC50 (BRD3 (His-Brd3(20-477))) [nM],GI50 (K-562 cells) [nM],GI50 (MV-4-11 cells) [nM],THP-1 TGI (THP-1 cells) [nM],K-562 TGI (K-562 cells) [nM],MV-4-11 TGI (MV-4-11 cells) [nM]
"Cc1cc(N2C(=O)c3c(C4CC4)nn(-c4ccnn4C)c3[C@H]2c2ccc(Cl)cc2)cn(C)c1=O [Example 22, (R)-6-(4-chlorophenyl)-3-cyclopropyl-5-(1,5-dimethyl-6-oxo-1,6-dihydropyridin-3-yl)-1-(1-methyl-1H-pyrazol-5-yl)-5,6-dihydropyrrolo[3,4-c]pyrazol-4(1H)-one]",87.4,89,278,49.5,165,>10000,88.65
"Cc1cc(N2C(=O)c3c(C4CC4)n[nH]c3[C@H]2c2ccc(Cl)cc2)cn(C)c1=O [Example 24, (R)-6-(4-chlorophenyl)-3-cyclopropyl-5-(1,5-dimethyl-6-oxo-1,6-dihydropyridin-3-yl)-5,6-dihydropyrrolo[3,4-c]pyrazol-4(1H)-one]",29.7,47,103,21.6,62.25,>10000,34.95
"COc1ncccc1-n1nc(C)c2c1[C@@H](c1ccc(Cl)cc1)N(c1cc(C)c(=O)n(C)c1)C2=O [Example 25, (R)-6-(4-chlorophenyl)-5-(1,5-dimethyl-6-oxo-1,6-dihydropyridin-3-yl)-1-(2-methoxypyridin-3-yl)-3-methyl-5,6-dihydropyrrolo[3,4-c]pyrazol-4(1H)-one]",72.7,64,206,40.7,135.5,>10000,72.55
"COc1ncccc1-n1nc2c(c1C)C(=O)N(c1cc(C)c(=O)n(C)c1)[C@@H]2c1ccc(Cl)cc1 [Example 26, (R)-6-(4-chlorophenyl)-5-(1,5-dimethyl-6-oxo-1,6-dihydropyridin-3-yl)-2-(2-methoxypyridin-3-yl)-3-methyl-5,6-dihydropyrrolo[3,4-c]pyrazol-4(2H)-one]",27.6,52,174,22.6,52.4,>10000,36.75
"Cc1[nH]nc2c1C(=O)N(c1cc(Cl)c(=O)n(C)c1)[C@@H]2c1ccc(Cl)cc1 [Example 28, (R)-5-(5-chloro-1-methyl-6-oxo-1,6-dihydropyridin-3-yl)-6-(4-chlorophenyl)-3-methyl-5,6-dihydropyrrolo[3,4-c]pyrazol-4(2H)-one]",110,69,318,49.3,201.5,>10000,86.4

# Further lines, with some results ahead:
GI50 (THP-1 cells) [nM],IC50 (BRD3 (His-Brd3(20-477))) [nM],GI50 (K-562 cells) [nM],GI50 (MV-4-11 cells) [nM],SMILES,THP-1 TGI (THP-1 cells) [nM],K-562 TGI (K-562 cells) [nM],MV-4-11 TGI (MV-4-11 cells) [nM]
166,52,404,115,"COc1ncc(-n2nc(C)c3c2C(c2ccc(Cl)cc2)N(c2cc(C)c(=O)n(C)c2)C3=O)cn1 (stereo not shown) [Example 21a, 6-(4-chlorophenyl)-5-(1,5-dimethyl-6-oxo-1,6-dihydropyridin-3-yl)-1-(2-methoxypyrimidin-5-yl)-3-methyl-5,6-dihydropyrrolo[3,4-c]pyrazol-4(1H)-one]",331,>10000,177
209,94,510,105,"COc1ncc(-n2nc3c(c2C)C(=O)N(c2cc(C)c(=O)n(C)c2)C3c2ccc(Cl)cc2)cn1 (stereo not shown) [Example 21b, 6-(4-chlorophenyl)-5-(1,5-dimethyl-6-oxo-1,6-dihydropyridin-3-yl)-2-(2-methoxypyrimidin-5-yl)-3-methyl-5,6-dihydropyrrolo[3,4-c]pyrazol-4(2H)-one]",396,>10000,208
